The test system of data set [1] is desiccated Salmonella enterica subsp. enterica serovar Enteritidis phage type 30 (ATCC BAA-1045). The data set is described as follows: Antimicrobial assay against cells desiccated on stainless-steel coupons. The data set is classed as cell-based. Particulars: 200 mM organic acid, 30-min contact; for MLR ± SD, W/O emulsion, 22° C. / MLR ± SD, W/O emulsion, 45° C.: 1% v/v water; for MLR ± SD, W/O emulsion, 22° C. / MLR ± SD, W/O emulsion, 45° C. / MLR ± SD, W/O emulsion with glycerol, 22° C. / MLR ± SD, W/O emulsion with glycerol, 45° C.: 75% ERH; for MLR ± SD, Oil with PGPR, 22° C. / MLR ± SD, Oil with PGPR, 45° C.: cells desiccated to 75% ERH.

Data set [2] is described as follows: Water activity (aw) by Dewpoint aw meter. The data set is classed as physicochemical. Particulars: 200 mM organic acid.

On to `CCCCCCCCCC(=O)O` [Capric, capric/decanoic acid], for which, in data set [1], the “MLR ± SD, W/O emulsion, 22° C.” value is 0.67 ± 0.17; the “MLR ± SD, W/O emulsion, 45° C.” value was above 6.52; the “MLR ± SD, W/O emulsion with glycerol, 22° C.” value is given as 0.37 ± 0.06; the “MLR ± SD, W/O emulsion with glycerol, 45° C.” value amounted to 0.57 ± 0.09. Besides, in data set [1], the “MLR ± SD, Oil with PGPR, 22° C.” value turned out to be 0.23 ± 0.04 and the “MLR ± SD, Oil with PGPR, 45° C.” value was 0.28 ± 0.09.
`CCC(=O)O` [Propionic, propionic/propanoic acid]: in data set [1], the “MLR ± SD, W/O emulsion, 22° C.” value is given as above 6.52; the “MLR ± SD, W/O emulsion, 45° C.” value is above 6.52; the “MLR ± SD, W/O emulsion with glycerol, 22° C.” value was determined as 0.73 ± 0.22; the “MLR ± SD, W/O emulsion with glycerol, 45° C.” value came to 1.41 ± 0.66. In addition, in data set [1], the “MLR ± SD, Oil with PGPR, 22° C.” value turned out to be 0.89 ± 0.24 and the “MLR ± SD, Oil with PGPR, 45° C.” value is given as 1.11 ± 0.27. In data set [1] (listed as C3), the “MLR ± SD, Oil with PGPR, 22° C.” value was determined as 0.89 and the “MLR ± SD, Oil with PGPR, 45° C.” value was 1.11.
Take `CCCCCCC(=O)O` [Enanthic, enanthic/heptanoic acid]: in data set [1], the “MLR ± SD, W/O emulsion, 22° C.” value was 0.34 ± 0.26; the “MLR ± SD, W/O emulsion, 45° C.” value is on record as above 6.52; the “MLR ± SD, W/O emulsion with glycerol, 45° C.” value was 0.79 ± 0.22; the “MLR ± SD, Oil with PGPR, 45° C.” value is listed as 0.34 ± 0.03.
For `CCCC(=O)O` [Butyric, butyric/butanoic acid], in data set [1], the “MLR ± SD, W/O emulsion, 22° C.” value worked out at 0.55 ± 0.06; the “MLR ± SD, W/O emulsion, 45° C.” value is reported as above 6.52; the “MLR ± SD, W/O emulsion with glycerol, 22° C.” value stood at 0.31 ± 0.16; the “MLR ± SD, W/O emulsion with glycerol, 45° C.” value was 1.40 ± 0.31. Besides, the “MLR ± SD, Oil with PGPR, 45° C.” value in data set [1] came out at 0.52 ± 0.13.
On to `CCCCCC(=O)O` [Caproic, caproic/hexanoic acid], for which, in data set [1], the “MLR ± SD, W/O emulsion, 22° C.” value is reported as 0.72 ± 0.18; the “MLR ± SD, W/O emulsion, 45° C.” value is on record as above 6.52; the “MLR ± SD, W/O emulsion with glycerol, 22° C.” value was found to be 0.10 ± 0.03; the “MLR ± SD, W/O emulsion with glycerol, 45° C.” value worked out at 0.74 ± 0.48. Moreover, in data set [1], the “MLR ± SD, Oil with PGPR, 22° C.” value is 0.21 ± 0.09 and the “MLR ± SD, Oil with PGPR, 45° C.” value is 0.68 ± 0.08.
Consider `CCCCCCCCCCC(=O)O` [Undecylic, undecylic/undecanoic acid], for which, in data set [1], the “MLR ± SD, W/O emulsion, 22° C.” value came out at 0.38 ± 0.09; the “MLR ± SD, W/O emulsion, 45° C.” value was above 6.52; the “MLR ± SD, W/O emulsion with glycerol, 45° C.” value is given as 0.22 ± 0.18; the “MLR ± SD, Oil with PGPR, 45° C.” value was determined as 0.31 ± 0.03.
Regarding `O=CO` [Formic, formic/methanoic acid], the “measured solution aw of acidified oil” value in data set [2] came to 0.51.
On to `CCCCCCCCC(=O)O` [Pelargonic, pelargonic/nonanoic acid], for which, in data set [1], the “MLR ± SD, W/O emulsion, 22° C.” value is 0.31 ± 0.10; the “MLR ± SD, W/O emulsion, 45° C.” value is on record as above 6.52; the “MLR ± SD, W/O emulsion with glycerol, 45° C.” value is 0.30 ± 0.09; the “MLR ± SD, Oil with PGPR, 45° C.” value is 0.39 ± 0.11.
On to `CC(=O)O` [Acetic, acetic/ethanoic acid], for which, in data set [1], the “MLR ± SD, W/O emulsion, 22° C.” value is reported as above 6.52; the “MLR ± SD, W/O emulsion, 45° C.” value was above 6.52; the “MLR ± SD, W/O emulsion with glycerol, 22° C.” value came to 0.81 ± 0.24; the “MLR ± SD, W/O emulsion with glycerol, 45° C.” value stood at 2.53 ± 0.75. Besides, in data set [1], the “MLR ± SD, Oil with PGPR, 22° C.” value amounted to 0.69 ± 0.19 and the “MLR ± SD, Oil with PGPR, 45° C.” value came to 1.42 ± 0.14. For the same compound, in data set [1] (listed as C2), the “MLR ± SD, Oil with PGPR, 22° C.” value came out at 0.69 and the “MLR ± SD, Oil with PGPR, 45° C.” value stood at 1.42.
For `CCCCC(=O)O` [Valeric, valeric/pentanoic acid], in data set [1], the “MLR ± SD, W/O emulsion, 22° C.” value was 0.11 ± 0.05; the “MLR ± SD, W/O emulsion, 45° C.” value is on record as above 6.52; the “MLR ± SD, W/O emulsion with glycerol, 45° C.” value is 1.12 ± 0.16; the “MLR ± SD, Oil with PGPR, 45° C.” value amounted to 0.31 ± 0.02.
As to `CCCCCCCC(=O)O` [Caprylic, caprylic/octanoic acid], in data set [1], the “MLR ± SD, W/O emulsion, 22° C.” value turned out to be 0.94 ± 0.26; the “MLR ± SD, W/O emulsion, 45° C.” value was above 6.52; the “MLR ± SD, W/O emulsion with glycerol, 22° C.” value is listed as 0.56 ± 0.18; the “MLR ± SD, W/O emulsion with glycerol, 45° C.” value worked out at 0.74 ± 0.11. In data set [1], the “MLR ± SD, Oil with PGPR, 45° C.” value was found to be 0.49 ± 0.26.
Turning to `CCCCCCCCCCCC(=O)O` [Lauric, lauric/dodecanoic acid], in data set [1], the “MLR ± SD, W/O emulsion, 22° C.” value is recorded as 1.05 ± 0.28; the “MLR ± SD, W/O emulsion, 45° C.” value is given as above 6.52; the “MLR ± SD, W/O emulsion with glycerol, 22° C.” value came out at 0.49 ± 0.12; the “MLR ± SD, W/O emulsion with glycerol, 45° C.” value is 1.02 ± 0.04. In data set [1], the “MLR ± SD, Oil with PGPR, 22° C.” value was 0.16 ± 0.06 and the “MLR ± SD, Oil with PGPR, 45° C.” value was determined as 0.40 ± 0.17.

Values taken from patent publication US20250160324A1, “ACIDIFIED OLEOGEL AND METHODS OF USE” (University of Massachusetts, priority 2023, published 2025).
